From patent US8853207B2 (Development Center for Biotechnology, priority 2012, dated 2014)
Structures can show the parent of a compound that is named as a salt.

What was measured:
Type in all cases: biochemical
[1] = target: FLT3 kinase (FLT3 kinase domain alone, Upstate) (Homo sapiens (Human), UniProt P36888); test: FLT3 kinase assay ([33P] incorporation into substrate); settings: 100 μM ATP, 30° C., 30 minutes; read-out: IC50 against FLT3
Procedure: (§1) Inhibition of FLT3 kinase activity by compounds disclosed herein was quantified by measuring the amount of [^33P] incorporated into the substrate in the presence of a test compound. Briefly, a reaction mixture of 25 μL final volume containing 5 ng of FLT3 kinase (FLT3 kinase domain alone, Upstate), 5 μg of the substrate [(Poly (Glu-Tyr, 4:1), Sigma], kinase reaction buffer (20 mM MOPS pH 7.0, 1 mM EDTA, 5% glycerol, 0.01% Brij-35, 0.1% β-mercaptoethanol, 1 mg/mL BSA, 100 μM ATP, 0.1 μCi per well [^33P]-γ-ATP (2,500-3,000 Ci/mmol)), and a test compound (diluted from 9 μM to the desired final concentration by 4% DMSO) or DMSO (as the control) was incubated at 30° C. for 30 minutes. The reaction was stopped by adding 5 μL of 3% phosphoric acid solution. The resultant solution (30 μL) was later harvested by a UniFilter Plate GF/B (PerkinElmer) followed by adding 30 μL of the scintillation cocktail (MicroScint 20, PerkinElmer) to the well. The radioactivity retained on the filter membrane was measured by a luminescence counter (PerkinElmer). The results were analyzed by using linear regression software (GraphPad Prism 4; GraphPad Software Inc.).

[2] = target: PDGFR-β kinase (recombinant N-terminal 6×His-tagged PDGFR-β kinase domain) (Homo sapiens (Human), UniProt P09619); test: PDGFR-β kinase assay ([33P] incorporation into substrate); settings: 30 nM ATP, 30° C., 30 minutes; read-out: IC50 (nM) PDGFRβ
Procedure: as §1, with “of PDGFR-β” for “of FLT3”, “containing 55” for “containing 5”, “kinase (obtained by purifying recombinant N-terminal 6×His-tagged PDGFR-β” for “kinase (FLT3”, “domain construct expressed by baculovirus), 2.5” for “domain alone, Upstate), 5”, “substrate [Poly” for “substrate [(Poly”, “BSA, 2 mM MnCl2, 30 nM” for “BSA, 100 μM”

[3] = target: C-kit kinase (recombinant N-terminal 6×His-tagged C-kit kinase domain) (Homo sapiens (Human), UniProt P10721); test: C-kit kinase assay ([33P] incorporation into substrate); settings: 100 μM ATP, 30° C., 30 minutes
Procedure: Inhibition of C-kit kinase activity by compounds disclosed herein was quantified by measuring the amount of [^33P] incorporated into the substrate in the presence of a test compound. Briefly, a reaction mixture of 25 μL final volume containing 5 ng of C-kit kinase (obtained by purifying recombinant N-terminal 6×His-tagged C-kit kinase domain construct expressed from baculovirus), 5 μg of the substrate [Poly (Glu-Tyr, […], Sigma], kinase reaction buffer (8 mM MOPS/NaOH pH7.0, 0.2 mM EDTA, 10 mM MnCl2, 0.5% glycerol, 0.001% Brij-35, 0.01%, 2-mercaptoethanol, 0.1 mg/ml BSA, 100 μM ATP, 0.1 μCi per well [^33P]-γ-ATP (2,500-3,000 Ci/mmol)), and a test compound (diluted from 9 μM to the desired final concentration by 4% DMSO) or DMSO (as the control) was incubated at 30° C. for 30 minutes. The reaction was stopped by adding 5 μL of 3% phosphoric acid solution. The resultant solution (30 μL) was later harvested by a UniFilter Plate GF/B (PerkinElmer) followed by adding 30 μL of the scintillation cocktail (MicroScint 20, PerkinElmer) to the well. The radioactivity retained on the filter membrane was measured by a luminescence counter (PerkinElmer). The results were analyzed by using linear regression software (GraphPad Prism 4; GraphPad Software Inc.).

C-kit kinase (recombinant N-terminal 6×His-tagged C-kit kinase domain), sequence (P10721 589-937): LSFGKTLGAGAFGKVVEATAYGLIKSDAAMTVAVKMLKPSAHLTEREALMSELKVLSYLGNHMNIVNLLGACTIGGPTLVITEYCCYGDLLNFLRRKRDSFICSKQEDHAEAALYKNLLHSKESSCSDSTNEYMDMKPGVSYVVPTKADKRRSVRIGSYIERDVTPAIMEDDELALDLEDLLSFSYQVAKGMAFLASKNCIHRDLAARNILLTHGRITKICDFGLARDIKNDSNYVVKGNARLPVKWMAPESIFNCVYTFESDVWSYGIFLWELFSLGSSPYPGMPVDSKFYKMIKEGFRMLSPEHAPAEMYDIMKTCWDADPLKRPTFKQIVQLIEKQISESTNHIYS
PDGFR-β kinase (recombinant N-terminal 6×His-tagged PDGFR-β kinase domain), sequence (P09619 600-962): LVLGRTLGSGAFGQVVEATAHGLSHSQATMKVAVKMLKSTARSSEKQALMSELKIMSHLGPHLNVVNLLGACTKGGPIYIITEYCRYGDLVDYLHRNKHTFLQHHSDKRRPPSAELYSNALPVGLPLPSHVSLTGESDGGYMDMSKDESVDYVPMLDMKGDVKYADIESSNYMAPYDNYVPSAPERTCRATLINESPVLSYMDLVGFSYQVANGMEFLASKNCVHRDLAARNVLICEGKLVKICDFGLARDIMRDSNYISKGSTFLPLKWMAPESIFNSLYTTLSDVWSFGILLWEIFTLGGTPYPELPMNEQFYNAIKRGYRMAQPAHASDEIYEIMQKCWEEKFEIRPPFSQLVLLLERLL
FLT3 kinase (FLT3 kinase domain alone, Upstate), sequence (P36888 610-943): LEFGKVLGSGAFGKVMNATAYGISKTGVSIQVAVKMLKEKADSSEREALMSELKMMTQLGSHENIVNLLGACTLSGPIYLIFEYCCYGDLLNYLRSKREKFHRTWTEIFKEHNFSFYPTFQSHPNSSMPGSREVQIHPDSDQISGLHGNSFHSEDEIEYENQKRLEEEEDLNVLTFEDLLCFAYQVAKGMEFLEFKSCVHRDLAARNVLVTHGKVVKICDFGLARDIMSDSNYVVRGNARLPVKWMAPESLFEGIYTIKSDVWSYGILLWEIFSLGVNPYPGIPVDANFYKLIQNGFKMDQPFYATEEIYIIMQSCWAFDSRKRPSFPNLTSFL

SMILES | IC50 [1] | IC50 [2] | IC50 [3]
Nc1ccc(-c2n[nH]c3c2Cc2sccc2-3)cc1 [Example-2, 4-(4,7-Dihydro-1-thia-4,5-diaza-cyclopenta[a]pentalen-6-yl)-phenylamine hydrochloride] | < 0.1 µM | 859 nM | 201 nM
Oc1cccc(Nc2ccc(-c3n[nH]c4c3Cc3sccc3-4)cc2)c1 [Example-10, 3-[4-(4,7-Dihydro-1-thia-4,5-diaza-cyclopenta[a]pentalen-6-yl)-phenylamino]-phenol] | < 0.1 µM | 118 nM | 139 nM
COc1ccc(-c2n[nH]c3c2Cc2sc(-c4ccncc4)cc2-3)cc1 [Example-69, 6-(4-Methoxy-phenyl)-2-pyridin-4-yl-4,7-dihydro-1-thia-4,5-diaza-cyclopenta[a]pentalene] | < 0.1 µM | 316 nM | 22 nM
COc1ccc(-c2n[nH]c3c2Cc2sc(-c4cccnc4)cc2-3)cc1 [Example-70, 6-(4-Methoxy-phenyl)-2-pyridin-3-yl-4,7-dihydro-1-thia-4,5-diaza-cyclopenta[a]pentalene] | < 0.1 µM | 479 nM | 24.8 nM
COc1ccc(-c2n[nH]c3c2Cc2sc(-c4ccc(N)nc4)cc2-3)cc1 [Example-78, 5-[6-(4-Methoxy-phenyl)-4,7-dihydro-1-thia-4,5-diaza-cyclopenta[a]pentalen-2-yl]-pyridin-2-ylamine] | < 0.1 µM | 363 nM | 27.5 nM
COc1ccc(-c2n[nH]c3c2Cc2sc(-c4ccc(NC(=O)CN5CCCC5)nc4)cc2-3)cc1 [Example-82, N-{5-[6-(4-Methoxy-phenyl)-4,7-dihydro-1-thia-4,5-diaza-cyclopenta[a]pentalen-2-yl]-pyridin-2-yl}-2-pyrrolidin-1-yl-acetamide] | < 0.1 µM | 176 nM | 12.2 nM
CN1CCN(c2ccc(-c3n[nH]c4c3Cc3sc(-c5ccc(N)nc5)cc3-4)cc2)CC1 [Example-89, 5-{6-[4-(4-Methyl-piperazin-1-yl)-phenyl]-4,7-dihydro-1-thia-4,5-diaza-cyclopenta[a]pentalen-2-yl}-pyridin-2-ylamine hydrochloride] | < 0.1 µM | – | –
COc1ccc(-c2n[nH]c3c2Cc2sc(-c4cncc(N)c4)cc2-3)cc1 [Example-91, 5-[6-(4-Methoxy-phenyl)-4,7-dihydro-1-thia-4,5-diaza-cyclopenta[a]pentalen-2-yl]-pyridin-3-ylamine hydrochloride] | < 0.1 µM | – | –
Nc1ccc(-c2cc3c(s2)Cc2c(-c4ccc(O)cc4)n[nH]c2-3)cn1 [Example-92, 4-[2-(6-Amino-pyridin-3-yl)-4,7-dihydro-1-thia-4,5-diaza-cyclopenta[a]pentalen-6-yl]-phenol] | < 0.1 µM | – | –
Oc1ccc(-c2n[nH]c3c2Cc2sccc2-3)cc1 [Example-93, 4-(4,7-Dihydro-1-thia-4,5-diaza-cyclopenta[a]pentalen-6-yl)-phenol] | < 0.1 µM | – | –
